Experimental data: ChEMBL document CHEMBL1201862, “PubChem BioAssay data set” (2004)
Activity calls are given as the source filed them.

Legend:
[1] = biological target: T1, Adenosylmethionine-8-amino-7-oxononanoate aminotransferase (Mycobacterium tuberculosis, UniProt P9WQ81); assay: Mycobacterium tuberculosis BioA enzyme inhibitor Measured in Biochemical System Using Plate Reader - 2163-02_Inhibitor_Dose_CherryPick_Activity.; assay type: functional, Mycobacterium tuberculosis UT205
T1 sequence (P9WQ81 whole entry): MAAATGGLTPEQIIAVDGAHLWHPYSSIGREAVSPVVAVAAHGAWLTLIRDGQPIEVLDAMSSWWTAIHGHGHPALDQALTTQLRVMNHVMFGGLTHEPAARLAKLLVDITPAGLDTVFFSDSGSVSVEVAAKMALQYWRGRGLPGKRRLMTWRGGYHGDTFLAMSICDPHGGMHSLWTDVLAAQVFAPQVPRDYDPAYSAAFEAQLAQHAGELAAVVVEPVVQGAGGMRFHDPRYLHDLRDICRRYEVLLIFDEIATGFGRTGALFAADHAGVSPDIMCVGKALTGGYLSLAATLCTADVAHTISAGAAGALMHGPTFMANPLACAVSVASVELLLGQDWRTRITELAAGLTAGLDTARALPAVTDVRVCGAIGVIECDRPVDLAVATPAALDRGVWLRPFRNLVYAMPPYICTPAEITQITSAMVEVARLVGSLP

Mu-type opioid receptor = Mu-type opioid receptor (Homo sapiens, UniProt P35372); assay type: functional, cell-based;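 also: U2OS cells with beta-arrestin recruitment to OPRM1 by beta-gal complementation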
[2] = biological target: 5-hydroxytryptamine receptor 2A (Mus musculus, UniProt P35363); assay type: functional, cell-based;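 also: CHO-K1 cells with tagged receptor and beta-arrestin; agonist potency measured as compound-induced activation of the receptor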
[3] = human group III sPLA2 inhibitors, dose response, biochemical, QFRET, IC50 (AID 743457);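 also: green fluorescence rise as the enzyme cleaves BODIPY PC-A2 in liposomes; potency for inhibition of the enzyme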
[4] = Counterscreen for activators of the function of SWI/SNF related, matrix associated, actin dependent regulator of chromatin, subfamily a, member 2 (SMARCA2, BRM): Luminescence-based cell-based high throughput dose response assay to identify non-selective compounds using the VP16 reporter assay.; assay type: functional
[5] = biological target: SWI/SNF-related matrix-associated actin-dependent regulator of chromatin subfamily A member 2 (Homo sapiens, UniProt P51531); assay: Luminescence-based cell-based high throughput dose response assay to identify activators of the function of SWI/SNF related, matrix associated, actin dependent regulator of chromatin, subfamily a, member 2 (SMARCA2, BRM).; assay type: functional
[6] = cytotoxicity in OVCAR8 ovarian cancer cells, dose response, PAX8 project, cell-based, plate reader, dry powder samples (AID 743197); assay type: functional; conditions: OVCAR-8
[7] = IGROV1 ovarian cancer cell cytotoxicity, dose response, PAX8 inhibitor project, plate reader, dry powder samples (AID 743043); assay type: functional, cell-based; conditions: IGROV-1
[8] = NIH:OVCAR-3 ovarian cancer cell cytotoxicity, dose response, PAX8 inhibitor project, plate reader, dry powder samples (AID 743044); assay type: functional, cell-based
Paired box protein Pax-8 = Paired box protein Pax-8 (Homo sapiens, UniProt Q06710); assay: inhibitors of PAX8-driven TPO luciferase reporter, dose response, RMG-I cells, cherry-pick (AID 687027); assay type: functional, cell-based;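 also: luciferase reporter driven by Pax8 target thyroperoxidase promoter measured by SteadyGlo luminescence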
[9] = non-specific cell cytotoxicity, dose response, cytotoxicity control for PAX8 inhibitor project, plate reader, dry powder samples (AID 743021); assay type: functional, cell-based
Interleukin-8 = biological target: T2, Interleukin-8 (Homo sapiens, UniProt P10145); assay: Dose Response confirmation of uHTS small molecule hits for cystic fibrosis induced NFkb Inhibitors in a PAF-induced IL8 counterscreen.; assay type: functional; conditions: read-out: IC50_Mean
T2 sequence (P10145 whole entry): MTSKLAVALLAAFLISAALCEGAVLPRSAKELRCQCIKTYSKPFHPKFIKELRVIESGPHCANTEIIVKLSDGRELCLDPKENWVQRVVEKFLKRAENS

[10] = CEM21 lymphoblast cell cytotoxicity, dose response, cytotoxicity control for viral fusion inhibitor project, CellTiter-Glo luminescence, cherry-picked (AID 652042); assay type: functional, cell-based;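 also: potency for signal decrease meaning cytotoxicity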
[11] = inhibitors of clade B AD8 Env fusion, dose response, cell-based, cherry-pick (AID 652062); assay type: functional;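 also: luciferase signal from cell-cell fusion driven by HIV-1 clade B AD8 Env; potency is for inhibitors of fusion seen as a drop in luminescence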
[12] = inhibitors of HIV Env-driven cell fusion, dose response, cherry-pick (AID 652057); assay type: functional, cell-based
[13] = ZM109 Env clade C HIV-1 fusion inhibitors, dose response, HeLa effector, CEM target cells, luciferase, cherry-pick (AID 652058); assay type: functional, cell-based
[14] = Luminescence Cell-Based Dose Retest to Confirm Inhibitors of Cancer Stem Cells. [Related pubchem assays (depositor defined):AID2717, AID2721]; assay type: functional; conditions: Homo sapiens
[15] = microbe, parasite or virus in culture; assay type: functional; conditions: Mycobacterium tuberculosis
INS1 = assay: beta cell apoptosis inhibitors, cytokine rescue, dose response, luminescence, retest (AID 449756); assay type: functional, cell-based; conditions: Rattus norvegicus;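 also: cell death triggered by IL-1 beta plus TNF-alpha plus IFN-gamma mixture; protective hits raise ATP signal compared with cytokine alone wells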
[16] = AlphaScreen signal interference compounds, dose response, artefact control for ARNT-TACC3 interaction inhibitor project, biochemical, luminescence, cherry-pick (AID 651705); assay type: functional;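 also: AlphaScreen bead proximity signal that flags compounds interfering with the detection technology; potency reflects signal decrease which marks the compound as an assay artifact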
[17] = growth suppression of PTEN-null colon cells, dose response, cell-based, HCT116 PTEN knockout (AID 1047); assay type: functional;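 also: HCT116 colon tumor cells with PTEN knocked out; cells exposed to compound for 60 hours before readout; potency for loss of cell viability measured by luminescence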
[18] = biological target: Heat shock protein HSP 90-alpha (Homo sapiens, UniProt P07900); assay type: functional, organism-based
[19] = biological target: T3, Sentrin-specific protease 8 (Homo sapiens, UniProt Q96LD8); assay type: functional
T3 sequence (Q96LD8 whole entry): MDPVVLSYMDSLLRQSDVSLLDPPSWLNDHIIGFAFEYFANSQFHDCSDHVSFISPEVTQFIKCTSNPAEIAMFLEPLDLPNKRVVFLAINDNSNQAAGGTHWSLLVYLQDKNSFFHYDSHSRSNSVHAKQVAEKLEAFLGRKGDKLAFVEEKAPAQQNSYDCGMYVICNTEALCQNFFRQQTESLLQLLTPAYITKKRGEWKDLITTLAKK

[20] = biological target: T3, Sentrin-specific protease 8; assay type: functional; remark: listed apart in the source
[21] = growth suppression of beta-catenin-knockout colon cells, dose response, cell-based, HCT116, human colon tumor (AID 1045); assay type: functional;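 also: HCT116 colon tumor cells with beta catenin knocked out; cells exposed to compound for 60 hours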
[22] = biological target: ATP-dependent molecular chaperone HSP82 (Candida albicans (strain WO-1) (Yeast), UniProt C4YTQ8); assay: loss of DOC-induced GRE-beta-galactosidase reporter signal, dose response, Hsp90 inhibitor project, S. cerevisiae, luminescence (AID 2400); assay type: functional, cell-based;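 also: beta-galactosidase luminescence from glucocorticoid response element reporter as proxy for Hsp90 function; inhibitor potency where signal loss means Hsp90 inhibition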
[23] = biological target: T4, Serine/threonine-protein phosphatase (Candida dubliniensis (strain CD36 / CBS 7987 / NCPF 3949 / NRRLY-17841) (Yeast), UniProt B9W6M3); assay: calcineurin pathway inhibitors in yeast reporter, dose response, S. cerevisiae, CDRE-lacZ, luminescence, secondary (AID 2388); assay type: functional, cell-based;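 also: yeast reporter cells carrying a calcineurin-responsive lacZ construct stimulated with calcium chloride; luminescent beta-galactosidase reporter signal in whole cells rather than isolated phosphatase activity; potency for inhibition where a drop in reporter signal means calcineurin blockade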
T4 sequence (B9W6M3 whole entry): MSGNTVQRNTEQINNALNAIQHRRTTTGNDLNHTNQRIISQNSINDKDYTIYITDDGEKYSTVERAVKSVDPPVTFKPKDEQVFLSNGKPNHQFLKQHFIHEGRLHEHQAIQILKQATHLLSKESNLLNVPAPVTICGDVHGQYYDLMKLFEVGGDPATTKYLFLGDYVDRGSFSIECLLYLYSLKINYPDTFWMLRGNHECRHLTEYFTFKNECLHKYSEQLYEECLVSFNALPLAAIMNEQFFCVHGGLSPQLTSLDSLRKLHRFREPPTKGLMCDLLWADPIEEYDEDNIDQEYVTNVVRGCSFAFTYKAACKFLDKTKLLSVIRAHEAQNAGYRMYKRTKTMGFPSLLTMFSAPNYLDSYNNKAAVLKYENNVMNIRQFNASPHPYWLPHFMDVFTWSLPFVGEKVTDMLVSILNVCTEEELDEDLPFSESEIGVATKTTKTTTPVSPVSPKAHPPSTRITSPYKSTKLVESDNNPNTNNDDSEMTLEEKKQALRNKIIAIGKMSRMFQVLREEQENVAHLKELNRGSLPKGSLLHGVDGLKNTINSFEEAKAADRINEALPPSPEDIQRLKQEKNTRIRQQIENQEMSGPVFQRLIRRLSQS

[24] = NIH-3T3 fibroblast cytotoxicity, dose response, cytotoxicity control, cell-based, fluorescence, Alamar Blue, secondary assay (AID 2327); assay type: functional;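 also: NIH-3T3 mouse fibroblasts cultured with fluconazole at 8 µg/mL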
[25] = C. albicans growth with fluconazole, confirmation, fluorescence, retest (AID 2467); assay type: functional, cell-based
Cytochrome P450 2C9 = Cytochrome P450 2C9 (Homo sapiens, UniProt P11712)
[26] = biological target: T5, Mitochondrial peptide methionine sulfoxide reductase (Bos taurus, UniProt P54149); assay: Absorbance-based biochemical high throughput dose response assay for activators of Methionine sulfoxide reductase A (MsrA).; assay type: functional
T5 sequence (P54149 whole entry): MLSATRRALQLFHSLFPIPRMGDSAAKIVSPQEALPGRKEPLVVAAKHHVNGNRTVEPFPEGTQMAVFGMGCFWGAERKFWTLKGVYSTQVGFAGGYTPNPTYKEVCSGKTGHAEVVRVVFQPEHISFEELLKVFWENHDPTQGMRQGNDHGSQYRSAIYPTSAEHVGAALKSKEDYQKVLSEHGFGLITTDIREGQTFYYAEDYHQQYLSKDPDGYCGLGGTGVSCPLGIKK

Cytochrome P450 3A4 = Cytochrome P450 3A4 (Homo sapiens, UniProt P08684);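 also: CYP3A4 tested as one member of a cytochrome P450 panel screen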
Cytochrome P450 2C19 = Cytochrome P450 2C19 (Homo sapiens, UniProt P33261); assay: Cytochrome panel assay with activity outcomes. Panel member name: p450-cyp2c19 Compounds with AC50 equal or less than 10 uM are considered active; assay type: functional; conditions: read-out: AC50
cells = assay type: functional
Large T antigen = Large T antigen (Simian virus 40, UniProt P03070); assay type: functional, Betapolyomavirus macacae;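 also: Confirmatory-stage PubChem screen for compounds that inhibit SV40 T antigen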
[27] = biological target: Glucose-6-phosphate 1-dehydrogenase (Homo sapiens, UniProt P11413); assay: human G6PD enzyme inhibitors, dose response, selectivity assay for P. falciparum G6PD inhibitor project, biochemical, fluorescence (AID 504792); assay type: functional
[28] = biological target: DNA dC->dU-editing enzyme APOBEC-3G (Homo sapiens, UniProt Q9HC16); assay: Dose Response confirmation of small molecule APOBEC3G DNA Deaminase Inhibitors via a fluorescence-based single-stranded DNA deaminase assay. [Related pubchem assays (depositor defined):AID493012, AID493028]; assay type: functional

SWI/SNF-related matrix-associated actin-dependent regulator of chromatin subfamily A member 2, sequence (P51531 whole entry): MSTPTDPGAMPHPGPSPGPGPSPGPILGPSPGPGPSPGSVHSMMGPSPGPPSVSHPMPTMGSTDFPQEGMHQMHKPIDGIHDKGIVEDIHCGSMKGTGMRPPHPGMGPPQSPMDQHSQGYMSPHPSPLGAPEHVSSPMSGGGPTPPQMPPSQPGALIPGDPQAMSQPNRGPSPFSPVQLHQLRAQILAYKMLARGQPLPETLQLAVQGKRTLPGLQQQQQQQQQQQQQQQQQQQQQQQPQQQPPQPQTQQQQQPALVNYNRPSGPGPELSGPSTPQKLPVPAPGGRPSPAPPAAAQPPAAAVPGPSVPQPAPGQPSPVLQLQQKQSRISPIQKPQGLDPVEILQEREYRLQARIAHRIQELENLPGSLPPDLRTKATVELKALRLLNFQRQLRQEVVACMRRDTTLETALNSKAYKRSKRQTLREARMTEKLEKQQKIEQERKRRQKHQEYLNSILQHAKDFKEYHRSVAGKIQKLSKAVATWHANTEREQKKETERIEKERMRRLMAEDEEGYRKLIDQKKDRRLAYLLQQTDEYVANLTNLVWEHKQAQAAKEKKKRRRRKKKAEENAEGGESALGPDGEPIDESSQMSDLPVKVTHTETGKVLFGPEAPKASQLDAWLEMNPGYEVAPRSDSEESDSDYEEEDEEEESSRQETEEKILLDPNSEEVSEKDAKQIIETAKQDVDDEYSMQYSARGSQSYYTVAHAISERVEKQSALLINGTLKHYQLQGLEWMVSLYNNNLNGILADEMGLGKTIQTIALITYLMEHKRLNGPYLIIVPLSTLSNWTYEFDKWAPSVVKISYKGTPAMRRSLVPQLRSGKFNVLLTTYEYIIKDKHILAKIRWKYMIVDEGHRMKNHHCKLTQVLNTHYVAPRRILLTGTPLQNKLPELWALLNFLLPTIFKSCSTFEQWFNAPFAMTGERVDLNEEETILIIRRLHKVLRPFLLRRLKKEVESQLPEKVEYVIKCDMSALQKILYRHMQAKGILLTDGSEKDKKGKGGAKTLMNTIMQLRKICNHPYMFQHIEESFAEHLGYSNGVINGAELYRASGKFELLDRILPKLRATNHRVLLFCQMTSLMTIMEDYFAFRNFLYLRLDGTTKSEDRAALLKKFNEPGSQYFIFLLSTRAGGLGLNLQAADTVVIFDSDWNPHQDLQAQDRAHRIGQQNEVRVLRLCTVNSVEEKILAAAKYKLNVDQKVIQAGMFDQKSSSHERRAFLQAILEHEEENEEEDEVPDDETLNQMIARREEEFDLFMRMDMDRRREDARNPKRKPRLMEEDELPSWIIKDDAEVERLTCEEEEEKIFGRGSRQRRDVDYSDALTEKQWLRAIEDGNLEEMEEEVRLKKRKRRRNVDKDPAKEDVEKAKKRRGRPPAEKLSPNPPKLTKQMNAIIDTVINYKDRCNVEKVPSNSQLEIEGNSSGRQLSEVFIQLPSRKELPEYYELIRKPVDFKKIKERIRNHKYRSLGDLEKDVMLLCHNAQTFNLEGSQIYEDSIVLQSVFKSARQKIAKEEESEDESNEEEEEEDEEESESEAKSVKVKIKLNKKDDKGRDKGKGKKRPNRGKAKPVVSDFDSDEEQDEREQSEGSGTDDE
Paired box protein Pax-8, sequence (Q06710 whole entry): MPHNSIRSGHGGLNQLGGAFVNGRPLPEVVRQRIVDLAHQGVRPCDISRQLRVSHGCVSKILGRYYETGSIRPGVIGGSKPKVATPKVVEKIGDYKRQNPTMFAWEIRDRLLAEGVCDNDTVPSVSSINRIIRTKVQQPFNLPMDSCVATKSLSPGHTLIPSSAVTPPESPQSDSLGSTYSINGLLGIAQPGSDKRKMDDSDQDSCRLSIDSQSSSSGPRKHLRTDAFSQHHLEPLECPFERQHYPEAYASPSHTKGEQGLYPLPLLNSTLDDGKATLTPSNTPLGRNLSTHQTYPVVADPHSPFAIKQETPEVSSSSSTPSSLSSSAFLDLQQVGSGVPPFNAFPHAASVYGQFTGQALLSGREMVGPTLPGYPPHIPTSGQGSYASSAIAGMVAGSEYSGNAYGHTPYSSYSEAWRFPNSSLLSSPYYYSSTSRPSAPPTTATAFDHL
Mu-type opioid receptor, sequence (P35372 whole entry): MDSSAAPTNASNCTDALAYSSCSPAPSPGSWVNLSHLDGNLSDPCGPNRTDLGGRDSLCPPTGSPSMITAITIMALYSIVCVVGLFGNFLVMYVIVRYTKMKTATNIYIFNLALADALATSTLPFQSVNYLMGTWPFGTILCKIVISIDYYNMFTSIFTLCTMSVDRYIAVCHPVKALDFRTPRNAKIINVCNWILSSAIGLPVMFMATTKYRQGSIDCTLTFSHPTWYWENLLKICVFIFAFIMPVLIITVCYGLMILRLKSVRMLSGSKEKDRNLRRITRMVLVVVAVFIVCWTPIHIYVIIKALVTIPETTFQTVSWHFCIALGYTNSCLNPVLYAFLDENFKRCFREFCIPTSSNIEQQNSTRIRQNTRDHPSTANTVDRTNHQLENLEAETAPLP
5-hydroxytryptamine receptor 2A, sequence (P35363 whole entry): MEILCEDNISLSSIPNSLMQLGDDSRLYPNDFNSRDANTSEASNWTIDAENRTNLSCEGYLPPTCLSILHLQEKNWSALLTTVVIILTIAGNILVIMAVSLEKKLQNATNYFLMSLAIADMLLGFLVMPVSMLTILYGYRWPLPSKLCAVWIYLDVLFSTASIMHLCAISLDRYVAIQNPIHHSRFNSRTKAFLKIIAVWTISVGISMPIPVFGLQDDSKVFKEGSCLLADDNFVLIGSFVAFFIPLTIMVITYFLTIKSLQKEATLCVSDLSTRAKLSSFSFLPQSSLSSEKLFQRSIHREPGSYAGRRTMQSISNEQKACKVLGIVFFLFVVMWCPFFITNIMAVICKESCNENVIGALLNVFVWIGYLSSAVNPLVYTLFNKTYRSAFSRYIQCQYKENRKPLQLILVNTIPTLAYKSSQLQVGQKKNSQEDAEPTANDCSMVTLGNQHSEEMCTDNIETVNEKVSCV
ATP-dependent molecular chaperone HSP82, sequence (C4YTQ8 whole entry): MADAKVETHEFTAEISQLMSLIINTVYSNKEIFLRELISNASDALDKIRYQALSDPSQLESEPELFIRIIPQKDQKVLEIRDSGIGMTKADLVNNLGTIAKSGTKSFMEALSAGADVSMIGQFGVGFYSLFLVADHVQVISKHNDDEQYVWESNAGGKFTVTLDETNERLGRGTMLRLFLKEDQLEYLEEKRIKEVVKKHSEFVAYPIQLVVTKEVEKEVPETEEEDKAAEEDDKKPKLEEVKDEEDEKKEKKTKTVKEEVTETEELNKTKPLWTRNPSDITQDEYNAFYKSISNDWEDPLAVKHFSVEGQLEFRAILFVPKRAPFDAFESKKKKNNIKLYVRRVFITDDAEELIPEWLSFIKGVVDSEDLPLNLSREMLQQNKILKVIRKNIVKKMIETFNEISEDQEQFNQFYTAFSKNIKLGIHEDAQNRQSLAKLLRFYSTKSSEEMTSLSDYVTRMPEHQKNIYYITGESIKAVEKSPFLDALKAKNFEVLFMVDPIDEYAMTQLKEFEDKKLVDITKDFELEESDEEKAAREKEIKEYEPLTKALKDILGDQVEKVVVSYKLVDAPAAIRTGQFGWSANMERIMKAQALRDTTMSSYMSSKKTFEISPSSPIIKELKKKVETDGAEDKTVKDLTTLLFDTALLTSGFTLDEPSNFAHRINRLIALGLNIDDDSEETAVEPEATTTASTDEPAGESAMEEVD
Large T antigen, sequence (P03070 whole entry): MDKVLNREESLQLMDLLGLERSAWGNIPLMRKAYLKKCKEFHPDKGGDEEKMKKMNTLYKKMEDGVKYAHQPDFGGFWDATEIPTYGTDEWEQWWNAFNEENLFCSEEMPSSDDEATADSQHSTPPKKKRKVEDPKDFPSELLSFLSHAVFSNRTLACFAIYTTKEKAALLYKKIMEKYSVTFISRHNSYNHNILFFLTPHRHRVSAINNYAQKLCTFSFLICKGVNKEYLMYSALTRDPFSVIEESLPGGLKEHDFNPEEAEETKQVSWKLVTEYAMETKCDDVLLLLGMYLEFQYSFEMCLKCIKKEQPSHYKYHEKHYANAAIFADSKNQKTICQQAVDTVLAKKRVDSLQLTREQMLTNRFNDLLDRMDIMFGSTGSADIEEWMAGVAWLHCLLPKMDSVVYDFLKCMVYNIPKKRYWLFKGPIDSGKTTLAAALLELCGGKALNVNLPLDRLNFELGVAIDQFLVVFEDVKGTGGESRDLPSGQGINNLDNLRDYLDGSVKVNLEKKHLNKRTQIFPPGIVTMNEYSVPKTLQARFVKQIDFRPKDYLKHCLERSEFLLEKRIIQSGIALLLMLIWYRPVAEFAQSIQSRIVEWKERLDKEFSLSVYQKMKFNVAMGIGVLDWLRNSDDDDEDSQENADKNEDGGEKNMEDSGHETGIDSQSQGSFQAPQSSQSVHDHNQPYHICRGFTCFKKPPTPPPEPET
Cytochrome P450 2C9, sequence (P11712 whole entry): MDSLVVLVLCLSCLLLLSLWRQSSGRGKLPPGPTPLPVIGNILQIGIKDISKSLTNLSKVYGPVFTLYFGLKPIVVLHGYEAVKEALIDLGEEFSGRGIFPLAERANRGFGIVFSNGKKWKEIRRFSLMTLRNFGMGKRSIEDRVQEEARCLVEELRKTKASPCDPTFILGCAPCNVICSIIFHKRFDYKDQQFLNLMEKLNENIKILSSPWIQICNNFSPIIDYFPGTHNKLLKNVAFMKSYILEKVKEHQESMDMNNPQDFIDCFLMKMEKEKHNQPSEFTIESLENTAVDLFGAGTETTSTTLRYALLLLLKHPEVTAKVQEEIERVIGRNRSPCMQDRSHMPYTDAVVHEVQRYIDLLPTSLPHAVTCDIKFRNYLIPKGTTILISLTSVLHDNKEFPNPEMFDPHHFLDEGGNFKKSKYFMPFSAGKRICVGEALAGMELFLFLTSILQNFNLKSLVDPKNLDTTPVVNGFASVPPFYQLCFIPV

Compound: CC(=O)N1CC[C@@H]2[C@@H](CO)N(C)c3ccc(-c4ccccc4)cc3[C@@H]21
- AC50 [1]: 8.17 µM (active)

Compound: CC1CCCN(c2ccc(C(=O)Nc3cccnc3)cc2[N+](=O)[O-])C1 (configuration not stated)
- AC50 [1]: 1.11 µM (active)

Compound: COc1ccccc1CN1CCN(C(=O)c2ccco2)CC1
- EC50 (Mu-type opioid receptor): 92.5 µM (inactive)
- EC50 [2]: 1.99 µM (active)

Compound: CCCCOc1ccc(CSC(=N)N)cc1Cl
- IC50 [3]: > 122 µM (inactive)

Compound: O=C(c1cc2ccccc2oc1=O)N1CCOCC1
- EC50 [4]: > 91.2 µM (inactive)
- EC50 [5]: > 91.2 µM (inactive)

Compound: C[C@H](CO)N1C[C@H](C)[C@@H](CN(C)S(=O)(=O)c2cccs2)OCCCC[C@H](C)Oc2ccc(NS(=O)(=O)c3ccc(Cl)cc3)cc2C1=O
- AC50 [6]: > 70 µM (inactive)
- AC50 [7]: 66.4 µM (active)
- AC50 [8]: 29.4 µM (active)
- AC50 (Paired box protein Pax-8): 3.86 µM (active)
- AC50 [9]: 54.6 µM (active)

Compound: CCn1c2ccccc2c2cc(/C=N/O)ccc21
- IC50 (Interleukin-8): 7.06 µM (active)

Compound: CCNC(=O)C1(C)CCCN(Cc2ccc(-c3ccccc3)o2)C1 (configuration not stated)
- IC50 (Interleukin-8): > 79 µM (inactive)

Compound: CCOC(=O)[C@@H]1[C@H]2COc3cc(OC)ccc3[C@H]2N2C(=O)N(c3ccc(C(F)(F)F)cc3)C(=O)[C@]12C
- AC50 [10]: 27.7 µM (active)
- AC50 [11]: 25 µM (active)
- AC50 [12]: 27.3 µM (active)
- AC50 [13]: 38.8 µM (active)
- AC50 [14]: 3.05 µM (active)
- CC50 [15]: 13.2 µM (active)
- AC50 (INS1): 7.32 µM (active)

Compound: Cc1ccc(NC(=O)CNCc2ccccn2)cc1S(=O)(=O)N(C)C
- AC50 [16]: 127 µM (active)

Compound: O=C(COC(=O)c1cccc(O)c1)c1ccccc1
- EC50 [4]: > 91.1 µM (inactive)
- EC50 [5]: > 91.1 µM (inactive)

Compound: Cc1c(Cl)cccc1/N=C/c1ccc([N+](=O)[O-])s1
- EC50 [17]: 26.5 µM (active)
- AC50 [18]: 7.37 µM (active)
- IC50 [19]: 3.66 µM (active)
- IC50 [20]: 5.17 µM (active)
- EC50 [21]: 40.3 µM (active)

Compound: COc1ccc(C2/C=C\CN(C(=O)C3CCCC3)CC(=O)N2Cc2ccc(F)cc2)cc1 (configuration not stated)
- EC50 (Mu-type opioid receptor): 92.5 µM (inactive)
- EC50 [2]: 76.1 µM (inactive)

Compound: CC(=O)c1sc(NC(=O)CCS(=O)(=O)c2ccccc2)nc1C
- EC50 [4]: > 91.1 µM (inactive)
- EC50 [22]: > 150 µM (inactive)
- EC50 [23]: > 180 µM (inactive)
- EC50 [24]: > 150 µM (inactive)
- EC50 [5]: > 91.1 µM (inactive)
- EC50 [25]: 0.691 µM (active)

Compound: Cc1cccc(NC(S)=NNC(=O)c2nn(C)cc2Cl)c1
- IC50 [3]: > 122 µM (inactive)

Compound: Cc1ccc(-c2cc[nH]c(=S)n2)cc1
- AC50 (Cytochrome P450 2C9): 10 µM (inconclusive)
- EC50 [26]: > 104 µM (inactive)
- AC50 (Cytochrome P450 3A4): 14.1 µM (inconclusive)
- AC50 (Cytochrome P450 2C19): 14.1 µM (inconclusive)

Compound: C[C@@H]1CCCCO[C@H](CN(C)S(=O)(=O)c2cccs2)[C@@H](C)CN([C@@H](C)CO)C(=O)c2cc(NC(=O)Nc3ccc(C(F)(F)F)cc3)ccc2O1
- AC50 [7]: 51.6 µM (active)
- AC50 (Paired box protein Pax-8): 3.48 µM (active)

Compound: Fc1ccc(-c2ccc(CNCc3ccccn3)o2)cc1Cl
- IC50 (cells): 4.34 µM (active)
- AC50 [16]: 88.6 µM (active)

Compound: CC(=O)c1ccc(C(=O)N2CCCC(CO)(Cc3ccccc3C)C2)s1 (configuration not stated)
- AC50 [1]: 4.14 µM (active)

Compound: CCOc1ccc(C(=O)CCNC(Cc2c[nH]cn2)C(=O)O)cc1 (configuration not stated)
- AC50 [16]: 124 µM (active)

Compound: OCc1ccccc1SSc1ccccc1CO
- EC50 [26]: > 104 µM (inactive)
- IC50 (Large T antigen): 11.4 µM (active)
- IC50 [27]: > 80 µM (inactive)
- IC50 [28]: 12.3 µM (active)
